# Read-outs that look alike come from different tables or passages of the source.
# Assays:
# [1] = Experimental: During dose escalation, patients received YY-20394 tablets q.d. at dosages of 20, 40, 80, 140 or 200 mg. The maximum tolerated dose (MTD), dose escalation phase and dose-limiting toxicity (DLT) as well as hematological toxicity classifications are described in Additional file 4. The primary endpoints were safety, tolerability and the MTD of YY-20394. Secondary endpoints were PK parameters and efficacy. Response criteria followed the revised International Research Working Group (IRWG) for non-Hodgkin lymphomas (NHL), and the International Working Group on Chronic Lymphocytic Leukemia (IWCLL) criteria for CLL [8]. Efficacy determinations were the objective response rate (ORR), disease control rate (DCR), complete remission (CR), partial remission (PR), stable disease (SD), progressive disease (PD) and progression-free survival (PFS).
# The safety evaluation of YY-20394 included adverse events (AEs) and serious AEs (SAEs) by standard categorizations.
# The maximum tolerated dose (MTD) was established during the dose escalation phase, based on dose-limiting toxicity (DLT) developments, which were defined as: death; grade IV hematological toxicity with a duration of 1 week; or non-hematological toxicities ≥ grade III. […] At the end of the tolerance test, the dose extension test was conducted, in which YY-20394 was administered for a period of 28 days per cycle until the disease progressed or toxicity developed beyond tolerance. Patients visited the clinic once a week during treatment cycle 1 and every 2 weeks during cycle 2 and once a month thereafter.
# [2] = Pharmacokinetics in patients after a single dose; format: in vivo, human; conditions: for AUC(0-inf) / AUC(0-t) / Cmax / Tmax / Vd/F / half-life / MRT last / MRT inf: human, serum, oral; for AUC(0-inf) / AUC(0-t) / Cmax / Tmax / Vd/F / half-life / MRT last / MRT inf / CL/F: single dose; for MRT last: read-out: MRT0→t; for MRT inf: read-out: MRT0→∞
# Source text: Additional File 5: Table S3. Mean pharmacokinetic parameters of patients after a single dose in each dosage group
# PI3Kδ = PI3Kδ (Homo sapiens, UniProt O00329); experiment: PI3Kδ kinase inhibition; format: biochemical
# [3] = drug-related AE, n (%) of 25 evaluable patients
# Sequence of PI3Kδ (O00329 whole entry): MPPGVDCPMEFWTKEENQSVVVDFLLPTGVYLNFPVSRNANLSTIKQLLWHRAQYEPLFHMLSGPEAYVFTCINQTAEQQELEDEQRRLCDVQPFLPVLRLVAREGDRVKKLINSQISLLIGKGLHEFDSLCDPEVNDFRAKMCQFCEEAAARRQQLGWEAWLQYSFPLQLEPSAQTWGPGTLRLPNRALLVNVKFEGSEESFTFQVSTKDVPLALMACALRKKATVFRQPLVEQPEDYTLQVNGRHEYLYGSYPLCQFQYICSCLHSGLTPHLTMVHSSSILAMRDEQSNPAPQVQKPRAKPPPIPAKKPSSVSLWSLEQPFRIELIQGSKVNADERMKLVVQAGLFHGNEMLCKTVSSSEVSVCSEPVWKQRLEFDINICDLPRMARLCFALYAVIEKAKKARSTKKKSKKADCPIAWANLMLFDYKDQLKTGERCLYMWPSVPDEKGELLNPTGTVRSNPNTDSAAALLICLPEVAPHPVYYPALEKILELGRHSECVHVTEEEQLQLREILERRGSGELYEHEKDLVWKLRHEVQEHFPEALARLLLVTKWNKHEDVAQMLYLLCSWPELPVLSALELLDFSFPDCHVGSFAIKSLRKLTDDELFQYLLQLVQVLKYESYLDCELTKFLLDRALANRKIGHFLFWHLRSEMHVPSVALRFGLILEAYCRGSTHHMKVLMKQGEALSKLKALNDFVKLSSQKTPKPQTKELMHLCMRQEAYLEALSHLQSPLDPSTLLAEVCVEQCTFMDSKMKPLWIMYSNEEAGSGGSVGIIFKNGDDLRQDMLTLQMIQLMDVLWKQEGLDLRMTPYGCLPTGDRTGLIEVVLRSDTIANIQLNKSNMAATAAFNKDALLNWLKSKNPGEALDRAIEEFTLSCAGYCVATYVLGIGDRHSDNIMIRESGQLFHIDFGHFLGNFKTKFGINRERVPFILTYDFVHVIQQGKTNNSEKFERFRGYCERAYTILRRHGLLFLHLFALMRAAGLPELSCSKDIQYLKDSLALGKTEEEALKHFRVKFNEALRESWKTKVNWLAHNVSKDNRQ
# Sequence of PI3Kδ (P27986 whole entry partner): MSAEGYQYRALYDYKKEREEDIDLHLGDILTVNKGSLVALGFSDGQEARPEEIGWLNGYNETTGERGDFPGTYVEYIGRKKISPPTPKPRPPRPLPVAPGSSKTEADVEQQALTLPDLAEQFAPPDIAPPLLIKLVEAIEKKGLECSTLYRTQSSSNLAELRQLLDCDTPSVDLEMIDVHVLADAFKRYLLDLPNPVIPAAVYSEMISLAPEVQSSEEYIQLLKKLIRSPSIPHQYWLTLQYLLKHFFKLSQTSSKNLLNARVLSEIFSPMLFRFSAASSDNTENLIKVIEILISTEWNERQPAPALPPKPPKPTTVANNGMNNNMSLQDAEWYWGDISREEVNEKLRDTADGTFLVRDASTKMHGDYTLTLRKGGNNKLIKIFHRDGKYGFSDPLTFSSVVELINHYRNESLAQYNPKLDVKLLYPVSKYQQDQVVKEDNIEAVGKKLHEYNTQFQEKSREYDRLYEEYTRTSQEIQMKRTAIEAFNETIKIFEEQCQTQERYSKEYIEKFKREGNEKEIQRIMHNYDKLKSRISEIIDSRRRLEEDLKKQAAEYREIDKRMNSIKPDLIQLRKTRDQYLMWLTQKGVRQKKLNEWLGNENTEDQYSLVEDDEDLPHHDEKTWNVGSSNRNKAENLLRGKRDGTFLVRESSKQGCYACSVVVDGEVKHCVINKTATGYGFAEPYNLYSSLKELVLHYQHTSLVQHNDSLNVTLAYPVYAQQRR
compound,measurement,setting,value
"COc1ncc(-c2nc(N3CCOCC3)nc3c(CN4CCC(C(C)(C)O)CC4)cc(F)cc23)cc1NS(C)(=O)=O [YY-20394, N-[5-[6-fluoro-8-[[4-(1-hydroxy-1-methylethyl)-1-piperidinyl]methyl]-2-(4-morpholinyl)-4-quinazolinyl]-2-methoxy-3-pyridinyl]-methanesulfonamide]",maximum tolerated dose (MTD),[1]; 20–200 mg daily,not reached
same,"Upper respiratory tract infection, number of patients with grade I/II at > 5% incidence",[1]; [3],4 (16.0)
same,"Upper respiratory tract infection, number of patients with ≥ grade III",[1]; [3],1 (4.0)
same,"Anemia, number of patients with grade I/II at > 5% incidence","[1]; human, in vivo",3 (12.0)
same,"Anemia, number of patients with ≥ grade III","[1]; human, in vivo",0
same,"Cough, number of patients with grade I/II at > 5% incidence","[1]; human, in vivo",2 (8.0)
same,"Cough, number of patients with ≥ grade III","[1]; human, in vivo",0
same,"Diarrhea, number of patients with grade I/II at > 5% incidence","[1]; human, in vivo",2 (8.0)
same,"Diarrhea, number of patients with ≥ grade III","[1]; human, in vivo",0
same,"Elevated alanine aminotransferase, number of patients with grade I/II at > 5% incidence","[1]; human, in vivo",3 (12.0)
same,"Elevated alanine aminotransferase, number of patients with ≥ grade III","[1]; human, in vivo",0
same,"Elevated aspartate aminotransferase, number of patients with grade I/II at > 5% incidence","[1]; human, in vivo",2 (8.0)
same,"Elevated aspartate aminotransferase, number of patients with ≥ grade III","[1]; human, in vivo",0
same,"Elevated bilirubin, number of patients with grade I/II at > 5% incidence","[1]; human, in vivo",2 (8.0)
same,"Elevated bilirubin, number of patients with ≥ grade III","[1]; human, in vivo",0
same,"Elevated serum alkaline phosphatase, number of patients with grade I/II at > 5% incidence","[1]; human, in vivo",3 (12.0)
same,"Elevated serum alkaline phosphatase, number of patients with ≥ grade III","[1]; human, in vivo",0
same,"Elevated serum lactate dehydrogenase, number of patients with grade I/II at > 5% incidence","[1]; human, in vivo",11 (44.0)
same,"Elevated serum lactate dehydrogenase, number of patients with ≥ grade III","[1]; human, in vivo",1 (4.0)
same,"Elevated serum α-hydroxybutyrate dehydrogenase, number of patients with grade I/II at > 5% incidence","[1]; human, in vivo",6 (24.0)
same,"Elevated serum α-hydroxybutyrate dehydrogenase, number of patients with ≥ grade III","[1]; human, in vivo",1 (4.0)
same,"Elevated γ-glutamyltransferase, number of patients with grade I/II at > 5% incidence","[1]; human, in vivo",2 (8.0)
same,"Elevated γ-glutamyltransferase, number of patients with ≥ grade III","[1]; human, in vivo",0
same,"Fatigue, number of patients with grade I/II at > 5% incidence","[1]; human, in vivo",2 (8.0)
same,"Fatigue, number of patients with ≥ grade III","[1]; human, in vivo",0
same,"Fever, number of patients with grade I/II at > 5% incidence","[1]; human, in vivo",2 (8.0)
same,"Fever, number of patients with ≥ grade III","[1]; human, in vivo",0
same,"Hyperbilirubinemia, number of patients with grade I/II at > 5% incidence","[1]; human, in vivo",3 (12.0)
same,"Hyperbilirubinemia, number of patients with ≥ grade III","[1]; human, in vivo",0
same,"Hyperuricemia, number of patients with grade I/II at > 5% incidence","[1]; human, in vivo",5 (20.0)
same,"Hyperuricemia, number of patients with ≥ grade III","[1]; human, in vivo",3 (12.0)
same,"Leukocytosis, number of patients with grade I/II at > 5% incidence","[1]; human, in vivo",2 (8.0)
same,"Leukocytosis, number of patients with ≥ grade III","[1]; human, in vivo",0
same,"Leukopenia, number of patients with grade I/II at > 5% incidence","[1]; human, in vivo",11 (44.0)
same,"Leukopenia, number of patients with ≥ grade III","[1]; human, in vivo",2 (8.0)
same,"Lymphocythemia, number of patients with grade I/II at > 5% incidence","[1]; human, in vivo",3 (12.0)
same,"Lymphocythemia, number of patients with ≥ grade III","[1]; human, in vivo",2 (8.0)
same,"Maculopapule, number of patients with grade I/II at > 5% incidence","[1]; human, in vivo",2 (8.0)
same,"Maculopapule, number of patients with ≥ grade III","[1]; human, in vivo",0
same,"Neutropenia, number of patients with grade I/II at > 5% incidence","[1]; human, in vivo",17 (68.0)
same,"Neutropenia, number of patients with ≥ grade III","[1]; human, in vivo",11 (44.0)
same,"Oropharyngeal pain, number of patients with grade I/II at > 5% incidence","[1]; human, in vivo",2 (8.0)
same,"Oropharyngeal pain, number of patients with ≥ grade III","[1]; human, in vivo",0
same,"Pneumonia, number of patients with grade I/II at > 5% incidence","[1]; human, in vivo",4 (16.0)
same,"Pneumonia, number of patients with ≥ grade III","[1]; human, in vivo",4 (16.0)
same,"Pneumonitis, number of patients with grade I/II at > 5% incidence","[1]; human, in vivo",3 (12.0)
same,"Pneumonitis, number of patients with ≥ grade III","[1]; human, in vivo",2 (8.0)
same,"Proteinuria, number of patients with grade I/II at > 5% incidence","[1]; human, in vivo",4 (16.0)
same,"Proteinuria, number of patients with ≥ grade III","[1]; human, in vivo",0
same,"Thrombocytopenia, number of patients with grade I/II at > 5% incidence","[1]; human, in vivo",5 (20.0)
same,"Thrombocytopenia, number of patients with ≥ grade III","[1]; human, in vivo",1 (4.0)
same,"Weight gain, number of patients with grade I/II at > 5% incidence","[1]; human, in vivo",2 (8.0)
same,"Weight gain, number of patients with ≥ grade III","[1]; human, in vivo",1 (4.0)
same,"Weight loss, number of patients with grade I/II at > 5% incidence","[1]; human, in vivo",3 (12.0)
same,"Weight loss, number of patients with ≥ grade III","[1]; human, in vivo",0
same,dose-limiting toxicity (DLT),"[1]; human, in vivo",no patients experienced DLT
same,drug-related AE elevated lactate dehydrogenase,"[1]; human, in vivo",44.0%
same,drug-related AE elevated α-hydroxybutyrate dehydrogenase,"[1]; human, in vivo",24.0%
same,drug-related AE hyperuricemia,"[1]; human, in vivo",20.0%
same,drug-related AE leukopenia,"[1]; human, in vivo",44.0%
same,drug-related AE neutropenia,"[1]; human, in vivo",68.0%
same,drug-related AE thrombocytopenia,"[1]; human, in vivo",20.0%
same,drug-related AE ≥ grade III hyperuricemia,"[1]; human, in vivo",12.0%
same,drug-related AE ≥ grade III leukopenia,"[1]; human, in vivo",8.0%
same,drug-related AE ≥ grade III lymphocythemia,"[1]; human, in vivo",8.0%
same,drug-related AE ≥ grade III neutropenia,"[1]; human, in vivo",44.0%
same,drug-related AE ≥ grade III pneumonia,"[1]; human, in vivo",16.0%
same,drug-related AE ≥ grade III pneumonitis,"[1]; human, in vivo",8.0%
same,grade IV hyperuricemia,"[1]; human, in vivo",3 cases
same,grade IV neutropenia,"[1]; human, in vivo",4
same,grade V AEs,"[1]; human, in vivo",no grade V AEs occurred
same,"incidence of diarrhea, colitis, and hepatotoxicities","[1]; human, in vivo",very low
same,number of ≥ grade III AEs,"[1]; human, in vivo",32
same,patients who experienced SAEs,"[1]; human, in vivo",52.0%
same,patients who experienced drug-related AEs (so in the source),"[1]; human, in vivo",36.0%
same,patients with ≥ 1 AE,"[1]; human, in vivo",25 patients
same,AUC(0-inf),"[2]; 20 mg, mean",1390 ng·h/mL
same,AUC(0-t),"[2]; 20 mg, mean",1140 ng·h/mL
same,Cmax,"[2]; 20 mg, mean",39.3 ng/mL
same,Tmax,"[2]; 20 mg, mean",4 h
same,Vd/F,"[2]; 20 mg, mean",576 L
same,half-life,"[2]; 20 mg, mean",27.8 h
same,MRT last,"[2]; 20 mg, mean",25 h
same,MRT inf,"[2]; 20 mg, mean",40.7 h
same,AUC(0-inf),"[2]; 40 mg, mean ± SD",2410 ng·h/mL
same,AUC(0-t),"[2]; 40 mg, mean ± SD",2270 ng·h/mL
same,Cmax,"[2]; 40 mg, mean ± SD",148 ± 24.5 ng/mL
same,Tmax,"[2]; 40 mg, mean ± SD",1.8 ± 0.3 h
same,Vd/F,"[2]; 40 mg, mean ± SD",445 ± 100 L
same,half-life,"[2]; 40 mg, mean ± SD",17.8 ± 1.4 h
same,MRT last,"[2]; 40 mg, mean ± SD",18 ± 0.9 h
same,MRT inf,"[2]; 40 mg, mean ± SD",22.4 ± 1.3 h
same,AUC(0-inf),"[2]; 80 mg, mean ± SD",6880 ng·h/mL
same,AUC(0-t),"[2]; 80 mg, mean ± SD",6510 ng·h/mL
same,Cmax,"[2]; 80 mg, mean ± SD",347 ± 90.2 ng/mL
same,Tmax,"[2]; 80 mg, mean ± SD",2.7 ± 1.5 h
same,Vd/F,"[2]; 80 mg, mean ± SD",302 ± 70.4 L
same,half-life,"[2]; 80 mg, mean ± SD",17.2 ± 1.8 h
same,MRT last,"[2]; 80 mg, mean ± SD",18.6 ± 1.9 h
same,MRT inf,"[2]; 80 mg, mean ± SD",22.7 ± 3.1 h
same,AUC(0-inf),"[2]; 140 mg, mean ± SD",15300 ng·h/mL
same,AUC(0-t),"[2]; 140 mg, mean ± SD",14200 ng·h/mL
same,Cmax,"[2]; 140 mg, mean ± SD",854 ± 289 ng/mL
same,Tmax,"[2]; 140 mg, mean ± SD",2 ± 1.7 h
same,Vd/F,"[2]; 140 mg, mean ± SD",236 ± 37.6 L
same,half-life,"[2]; 140 mg, mean ± SD",18 ± 3.6 h
same,MRT last,"[2]; 140 mg, mean ± SD",19.1 ± 3.6 h
same,MRT inf,"[2]; 140 mg, mean ± SD",24.8 ± 6.5 h
same,AUC(0-inf),"[2]; 200 mg, mean ± SD",15000 ng·h/mL
same,AUC(0-t),"[2]; 200 mg, mean ± SD",13100 ng·h/mL
same,Cmax,"[2]; 200 mg, mean ± SD",641 ± 378 ng/mL
same,Tmax,"[2]; 200 mg, mean ± SD",9.4 ± 10.1 h
same,Vd/F,"[2]; 200 mg, mean ± SD",318 ± 92.2 L
same,half-life,"[2]; 200 mg, mean ± SD",16 ± 1.9 h
same,MRT last,"[2]; 200 mg, mean ± SD",21.5 ± 6.4 h
same,MRT inf,"[2]; 200 mg, mean ± SD",21.8 ± 4 h
same,"in vivo exposure (Cmax, AUC0-t, AUC0-∞) versus dose","[2]; single administrations, 20 to 140 mg",increased proportionally in a dose-dependent manner
same,CL/F,"[2]; 20 mg, mean",14.4 L/h
same,CL/F,"[2]; 40 mg, mean ± SD",17.6 ± 4.8 L/h
same,CL/F,"[2]; 80 mg, mean ± SD",12.2 ± 2.6 L/h
same,CL/F,"[2]; 140 mg, mean ± SD",9.2 ± 0.5 L/h
same,CL/F,"[2]; 200 mg, mean ± SD",13.6 ± 2.4 L/h
same,IC50,PI3Kδ,4.6 nM

# — article PMC8381505, “Phase 1 clinical trial of the PI3Kδ inhibitor YY-20394 in patients with B-cell hematological malignancies” (Journal of Hematology & Oncology, 2021)
